Test results from publication PMC5513037, “Examining the influence of specificity ligands and ATP-competitive ligands on the overall effectiveness of bivalent kinase inhibitors” (Proteome Science, 2017).
pIC50: −log10 of the molar value.

What was measured:
Assay in all cases: KAM-matrix competition in K562 lysate;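 for 0.001 uM KAM: median log10 fold change of treatment over DMSO control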;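 for 0.01 uM KAM: median log10 fold change of treatment over DMSO control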;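 for 0.1 uM KAM: median log10 fold change of treatment over DMSO control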;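 for 1 uM KAM: median log10 fold change of treatment over DMSO control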;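 for 10 uM KAM: median log10 fold change of treatment over DMSO control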
Type in all cases: binding
YES1 = target: T1, YES1 (Homo sapiens, UniProt P07947)
T1 construct: endogenous in cells; host or cells: K562
Procedure: (§1) Supplement 12953_2017_125_MOESM1_ESM.zip/MS_Supp Info.xlsx, sheet "KAM" | column: 10 uM KAM; 1 uM KAM; 0.1 uM KAM; 0.01 uM KAM; 0.001 uM KAM; RB50

MAP2K2 = target: T2, MAP2K2 (Homo sapiens, UniProt P36507)
T2 construct: endogenous in cells; host or cells: K562
Procedure: as §1

GAK = target: T3, GAK (Homo sapiens, UniProt O14976)
T3 construct: endogenous in cells; host or cells: K562 cell lysate
T3 sequence (O14976 1-1311): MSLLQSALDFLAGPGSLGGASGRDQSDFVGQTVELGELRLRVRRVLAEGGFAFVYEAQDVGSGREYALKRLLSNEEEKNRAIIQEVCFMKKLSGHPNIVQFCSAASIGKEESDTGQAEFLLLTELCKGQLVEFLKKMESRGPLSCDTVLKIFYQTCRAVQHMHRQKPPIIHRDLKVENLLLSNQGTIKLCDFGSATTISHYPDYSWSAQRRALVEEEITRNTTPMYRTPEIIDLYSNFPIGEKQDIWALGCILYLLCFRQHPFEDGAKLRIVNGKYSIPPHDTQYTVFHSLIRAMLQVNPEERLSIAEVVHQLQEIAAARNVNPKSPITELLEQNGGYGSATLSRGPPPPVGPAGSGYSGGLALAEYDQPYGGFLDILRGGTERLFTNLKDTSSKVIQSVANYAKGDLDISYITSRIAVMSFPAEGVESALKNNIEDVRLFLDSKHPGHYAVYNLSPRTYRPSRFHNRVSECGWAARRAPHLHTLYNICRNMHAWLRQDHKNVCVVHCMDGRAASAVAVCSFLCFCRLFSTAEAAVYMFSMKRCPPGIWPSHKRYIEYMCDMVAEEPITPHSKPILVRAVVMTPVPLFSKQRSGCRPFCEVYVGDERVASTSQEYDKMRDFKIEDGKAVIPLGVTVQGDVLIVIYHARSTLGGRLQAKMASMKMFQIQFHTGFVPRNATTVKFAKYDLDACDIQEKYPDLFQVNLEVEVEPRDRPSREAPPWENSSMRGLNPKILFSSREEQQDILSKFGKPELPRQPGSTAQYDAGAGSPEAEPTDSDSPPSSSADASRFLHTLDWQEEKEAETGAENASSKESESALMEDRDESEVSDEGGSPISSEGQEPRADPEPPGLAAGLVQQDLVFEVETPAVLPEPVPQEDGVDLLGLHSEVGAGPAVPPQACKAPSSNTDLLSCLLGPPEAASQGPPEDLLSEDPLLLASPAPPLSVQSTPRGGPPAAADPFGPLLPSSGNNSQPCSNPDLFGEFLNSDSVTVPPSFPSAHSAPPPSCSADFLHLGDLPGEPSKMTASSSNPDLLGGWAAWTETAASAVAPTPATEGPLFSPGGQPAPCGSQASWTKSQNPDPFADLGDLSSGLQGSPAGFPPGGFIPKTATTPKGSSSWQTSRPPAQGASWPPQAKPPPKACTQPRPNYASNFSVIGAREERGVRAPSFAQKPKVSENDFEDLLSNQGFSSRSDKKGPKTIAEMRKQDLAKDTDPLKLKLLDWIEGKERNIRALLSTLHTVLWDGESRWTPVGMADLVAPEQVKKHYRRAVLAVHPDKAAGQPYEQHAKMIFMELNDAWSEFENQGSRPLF
Procedure: as §1

SYK = target: T4, SYK (Homo sapiens, UniProt P43405)
T4 construct: K562 cell pellets were thawed on ice and resuspended in cold Lysis buffer; endogenous in cells; host or cells: K562
Procedure: as §1

MERTK = target: T5, MERTK (Homo sapiens, UniProt Q12866);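 for 0.001 uM KAM: median log10 fold change of treatment over DMSO control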;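 for 0.01 uM KAM: median log10 fold change of treatment over DMSO control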;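 for 0.1 uM KAM: median log10 fold change of treatment over DMSO control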;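 for 1 uM KAM: median log10 fold change of treatment over DMSO control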;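 for 10 uM KAM: median log10 fold change of treatment over DMSO control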
T5 construct: endogenous in cells; host or cells: K562
T5 sequence (Q12866 21-999): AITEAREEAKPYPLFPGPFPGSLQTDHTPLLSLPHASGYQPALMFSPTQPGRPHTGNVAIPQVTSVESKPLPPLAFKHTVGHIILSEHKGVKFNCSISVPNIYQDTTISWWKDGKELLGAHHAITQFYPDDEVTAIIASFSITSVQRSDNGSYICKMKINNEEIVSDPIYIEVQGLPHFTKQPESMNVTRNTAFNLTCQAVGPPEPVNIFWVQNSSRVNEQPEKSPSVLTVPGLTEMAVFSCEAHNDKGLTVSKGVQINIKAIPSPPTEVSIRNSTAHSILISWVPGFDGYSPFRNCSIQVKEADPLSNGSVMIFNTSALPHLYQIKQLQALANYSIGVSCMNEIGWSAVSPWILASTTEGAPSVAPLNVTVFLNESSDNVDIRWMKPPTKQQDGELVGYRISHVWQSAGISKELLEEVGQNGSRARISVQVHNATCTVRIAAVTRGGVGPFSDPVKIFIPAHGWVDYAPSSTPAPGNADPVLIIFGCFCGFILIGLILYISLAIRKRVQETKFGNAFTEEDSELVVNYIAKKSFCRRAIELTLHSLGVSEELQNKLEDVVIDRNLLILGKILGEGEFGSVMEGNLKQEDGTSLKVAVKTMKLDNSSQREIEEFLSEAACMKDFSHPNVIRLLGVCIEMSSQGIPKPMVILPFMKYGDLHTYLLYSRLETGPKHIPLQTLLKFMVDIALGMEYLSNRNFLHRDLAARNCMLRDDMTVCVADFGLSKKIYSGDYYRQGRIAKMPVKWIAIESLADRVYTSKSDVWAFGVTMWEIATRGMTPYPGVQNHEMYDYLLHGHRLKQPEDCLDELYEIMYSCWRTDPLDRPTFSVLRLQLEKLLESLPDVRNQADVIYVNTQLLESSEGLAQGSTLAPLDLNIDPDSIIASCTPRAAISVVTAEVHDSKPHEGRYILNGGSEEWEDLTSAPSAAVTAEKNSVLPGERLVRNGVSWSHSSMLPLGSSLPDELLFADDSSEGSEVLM
Procedure: as §1

[1] = read-out: RB50 (the source's name)

T1 sequence (P07947 whole entry): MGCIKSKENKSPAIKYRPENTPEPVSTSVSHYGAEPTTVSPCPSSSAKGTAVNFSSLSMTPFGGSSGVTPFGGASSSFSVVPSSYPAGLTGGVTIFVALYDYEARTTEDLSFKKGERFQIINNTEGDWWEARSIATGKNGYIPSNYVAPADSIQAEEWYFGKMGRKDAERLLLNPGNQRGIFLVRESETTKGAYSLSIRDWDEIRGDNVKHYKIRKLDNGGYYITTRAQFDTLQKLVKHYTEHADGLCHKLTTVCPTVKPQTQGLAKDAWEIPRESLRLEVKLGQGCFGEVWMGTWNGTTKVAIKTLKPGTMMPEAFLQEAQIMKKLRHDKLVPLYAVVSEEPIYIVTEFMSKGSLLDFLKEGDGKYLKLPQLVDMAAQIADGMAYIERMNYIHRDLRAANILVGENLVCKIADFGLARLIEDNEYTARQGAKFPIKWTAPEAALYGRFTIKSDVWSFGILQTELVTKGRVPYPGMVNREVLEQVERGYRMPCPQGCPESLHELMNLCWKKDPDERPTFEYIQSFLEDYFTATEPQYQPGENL
T2 sequence (P36507 whole entry): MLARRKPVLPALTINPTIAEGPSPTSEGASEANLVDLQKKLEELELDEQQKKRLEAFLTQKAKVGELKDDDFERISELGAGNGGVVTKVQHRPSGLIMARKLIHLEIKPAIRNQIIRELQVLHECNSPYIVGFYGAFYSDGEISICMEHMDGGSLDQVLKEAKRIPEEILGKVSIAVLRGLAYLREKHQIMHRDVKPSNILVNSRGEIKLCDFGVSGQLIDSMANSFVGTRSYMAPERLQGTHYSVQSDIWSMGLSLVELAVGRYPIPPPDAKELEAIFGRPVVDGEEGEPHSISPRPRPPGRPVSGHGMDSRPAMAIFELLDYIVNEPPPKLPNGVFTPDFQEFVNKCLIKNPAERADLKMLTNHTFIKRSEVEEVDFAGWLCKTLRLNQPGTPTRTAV

## N#CCc1ccc(Nc2nc(NCCCN)cc(Nc3cc(C4CC4)[nH]n3)n2)cc1 [KAM]
YES1; 0.001 uM KAM
  median Log10 fold change: 0.00764
YES1; 0.01 uM KAM
  median Log10 fold change: 0.01465
YES1; 0.1 uM KAM
  median Log10 fold change: -0.1546
YES1; 1 uM KAM
  median Log10 fold change: -0.4462
YES1; 10 uM KAM
  median Log10 fold change: -0.6732
YES1; [1]
  pIC50: 6.34
MAP2K2; 0.001 uM KAM
  median Log10 fold change: -0.0579
MAP2K2; 0.01 uM KAM
  median Log10 fold change: -0.04236
MAP2K2; 0.1 uM KAM
  median Log10 fold change: -0.2079
MAP2K2; 1 uM KAM
  median Log10 fold change: -0.4376
MAP2K2; 10 uM KAM
  median Log10 fold change: -0.4638
MAP2K2; [1]
  pIC50: 6.44
GAK; 0.001 uM KAM
  median Log10 fold change: -0.03137
GAK; 0.01 uM KAM
  median Log10 fold change: -0.03807
GAK; 0.1 uM KAM
  median Log10 fold change: -0.2019
GAK; 1 uM KAM
  median Log10 fold change: -0.4109
GAK; 10 uM KAM
  median Log10 fold change: -0.5049
GAK; [1]
  pIC50: 6.37
SYK; 0.001 uM KAM
  median Log10 fold change: -0.04062
SYK; 0.01 uM KAM
  median Log10 fold change: -0.03667
SYK; 0.1 uM KAM
  median Log10 fold change: -0.2061
SYK; 1 uM KAM
  median Log10 fold change: -0.3555
SYK; 10 uM KAM
  median Log10 fold change: -0.3656
SYK; [1]
  pIC50: 6.15
MERTK; KAM 0.001-10 uM, read-out: RB50 (the source's name)
  pIC50: < 5.00
MERTK; relative to 0 uM KAM = 0
  0.001 uM KAM: -0.05728
  0.01 uM KAM: -0.0237
  0.1 uM KAM: -0.04893
  1 uM KAM: -0.1208
  10 uM KAM: -0.2454
